# Patent EP1009837B1 (priority 1997, dated 1999)
# Tests used:
# [1] = test system: S. cerevisiae; settings: typical low concentration; background statement; cited from earlier work
# [2] = test system: FY23ρ^0
# Protocol: (§1) Strain-specific ethanol tolerances were determined in batch cultures in specially adapted 100ml Erienmeyer flasks (called Klett Flasks) in combination with the Klett Summerson colorimeter and a green filter (Klett Summerson, USA). Cultures were grown to early exponential phase overnight and then split into 18ml aliquots to which 2ml of either sterile distilled water or ethanol solution were added to the aliquots giving final concentrations of 0, 2,3,4,6 and 10% (w/v) ethanol. Each concentration was carried out in triplicate and hourly measurements were made of cell density. A 1ml sample was extracted from the flask, diluted and plated onto YPD for a viable cell count. The remainder of the sample was centrifuged (15,000 rpm, 4°C, 5 min) and the supernatant frozen for subsequent analysis of ethanol concentration by GC.
# (§2) All four members of the isogenic series (FY23WT, FY23Δpet191, FY23Δcox5a and FY23ρ^0) were grown in batch culture at 30°C and ethanol, at various concentrations, was introduced at the beginning of the exponential phase. Cell growth was followed for eight hours measuring optical densities with a Klett meter.
# (§3) Graphs were plotted of loge Klett units against elapsed time and linear regression analysis was performed to calculate culture specific growth rates, µ. The effect of ethanol on the growth rate of the 4 members of the series was analysed by comparing relative growth rates at each ethanol concentration, and calculating these as a percentage of the growth rate in the absence of ethanol.
# (§4) Ethanol inhibition kinetics are thought to follow those of non-competitive inhibition and can be modeled using a variant of the Monod equation. From the specific growth rate values calculated, it is possible to determine values of Ki by inserting them into the rearranged equation [µm/µi - 1 = I. 1/Ki]. […] The initial values of µ calculated are µapparent values determined from the growth of a culture containing both living and dead cells.
# [3] = test system: FY23Δpet191
# Protocol: as §1, §2, §3, §4
# [4] = test system: FY23Δcox5a
# Protocol: as §1, §2, §3, §4
# [5] = target: FY23WT; settings: strain FY23WT (grande parent); batch culture 30°C; exogenous ethanol 0-10% (w/v); µ corrected for viability
# Protocol: as §1, §2, §3, §4
SMILES,concentration to which S. cerevisiae is sensitive [1] [µg/mL],"ethanol tolerance relative to FY23 WT ([2]; mitochondrial petite, Ki as percentage of FY23WT) [%]","Ki (true growth rate) ([2]; strain FY23ρ^0 (mitochondrial petite), batch culture 30°C, µ corrected for viability)","Ki as percentage of the wild-type value ([3]; FY23Δpet191, Ki relative to FY23WT)","Ki (true growth rate) ([3]; strain FY23Δpet191 (nuclear petite), batch culture 30°C, µ corrected for viability)","ethanol tolerance relative to the wild-type strain ([4]; FY23Δcox5a, Ki as percentage of FY23WT) [%]","Ki (true growth rate) ([4]; strain FY23Δcox5a (nuclear petite), batch culture 30°C, µ corrected for viability)",Ki (true growth rate) [5]
C[C@@H]1C[C@@H]([C@H](O)CC2CC(=O)NC(=O)C2)C(=O)[C@@H](C)C1 [cycloheximide],~0.2,–,–,–,–,–,–,–
CCO [ethanol],–,76,1.71 % (w/v),approximately 95%,2.14 % (w/v),86,1.94 % (w/v),2.30 % (w/v)
